According to patent US9284300B2, “Pyridazinone derivatives” (Merck Patent GmbH, priority 2007, dated 2016):
pIC50: −log10 of the molar value.

Assays:
Met kinase [1] = target: T1, Met kinase (Homo sapiens, UniProt P08581); assay: Met kinase inhibition, cell assay; format: cell-based
Target sequence in this assay (P08581 25-1390): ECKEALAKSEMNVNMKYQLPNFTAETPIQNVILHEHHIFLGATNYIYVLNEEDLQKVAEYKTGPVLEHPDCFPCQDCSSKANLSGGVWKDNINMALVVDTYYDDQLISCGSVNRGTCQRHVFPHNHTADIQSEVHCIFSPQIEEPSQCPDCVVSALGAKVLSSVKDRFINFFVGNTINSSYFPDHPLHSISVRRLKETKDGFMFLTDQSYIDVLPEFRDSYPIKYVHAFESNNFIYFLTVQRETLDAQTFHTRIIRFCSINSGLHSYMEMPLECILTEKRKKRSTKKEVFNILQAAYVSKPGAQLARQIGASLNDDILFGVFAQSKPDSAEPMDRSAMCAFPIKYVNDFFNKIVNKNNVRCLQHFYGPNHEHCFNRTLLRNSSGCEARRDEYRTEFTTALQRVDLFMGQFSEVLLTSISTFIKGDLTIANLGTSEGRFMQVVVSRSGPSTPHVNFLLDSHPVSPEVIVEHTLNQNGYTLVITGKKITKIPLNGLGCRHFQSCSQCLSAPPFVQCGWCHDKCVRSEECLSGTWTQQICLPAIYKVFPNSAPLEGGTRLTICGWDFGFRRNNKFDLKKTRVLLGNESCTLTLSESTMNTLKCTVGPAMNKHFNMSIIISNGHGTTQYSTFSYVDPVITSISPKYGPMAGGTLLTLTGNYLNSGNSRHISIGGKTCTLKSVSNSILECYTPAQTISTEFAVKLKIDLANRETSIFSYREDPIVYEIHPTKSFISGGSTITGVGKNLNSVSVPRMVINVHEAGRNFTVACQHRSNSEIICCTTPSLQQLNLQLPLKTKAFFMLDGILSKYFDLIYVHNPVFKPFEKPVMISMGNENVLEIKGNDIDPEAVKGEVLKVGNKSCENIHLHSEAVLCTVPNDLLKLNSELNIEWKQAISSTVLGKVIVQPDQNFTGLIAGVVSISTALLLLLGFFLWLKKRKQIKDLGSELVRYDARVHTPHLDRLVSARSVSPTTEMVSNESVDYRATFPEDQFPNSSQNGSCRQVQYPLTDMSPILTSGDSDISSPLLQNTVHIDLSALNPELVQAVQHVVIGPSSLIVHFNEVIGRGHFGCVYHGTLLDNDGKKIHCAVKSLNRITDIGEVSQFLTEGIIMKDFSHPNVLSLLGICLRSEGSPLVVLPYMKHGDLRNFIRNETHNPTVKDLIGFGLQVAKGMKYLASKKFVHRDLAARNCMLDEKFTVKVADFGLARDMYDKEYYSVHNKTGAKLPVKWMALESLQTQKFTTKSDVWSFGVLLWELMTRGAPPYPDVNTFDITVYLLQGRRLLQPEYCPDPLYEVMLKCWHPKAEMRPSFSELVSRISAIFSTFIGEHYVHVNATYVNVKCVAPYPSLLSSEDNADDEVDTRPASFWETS

Met kinase [2] = target: T1, Met kinase; assay: Flashplate method (Met kinase); format: biochemical; set-up: 6His (N); purchased Upstate 14-526; host or cells: Sf21 insect cells (S. frugiperda), baculovirus; settings: Met kinase inhibition, enzyme assay
Experimental: The test plates used are 96-well Flashplate^R microtitre plates from Perkin Elmer (Cat. No. SMP200).
The full value used is the inhibitor-free kinase reaction. This should be approximately in the range 6000-9000 cpm. The pharmacological zero value used is staurosporin in a final concentration of 0.1 mM. The inhibitory values (IC50) are determined using the RS1_MTS program.
Kinase reaction conditions per well: • 30 μl of assay buffer • 10 μl of substance to be tested in assay buffer with 10% of DMSO • 10 μl of ATP (final concentration 1 μM cold, 0.35 μCi of ^33P-ATP) • 50 μl of Met kinase/substrate mixture in assay buffer; (10 ng of enzyme/well, 50 ng of pAGLT/well)
Target sequence in this assay (P08581 974-1390 limits assumed): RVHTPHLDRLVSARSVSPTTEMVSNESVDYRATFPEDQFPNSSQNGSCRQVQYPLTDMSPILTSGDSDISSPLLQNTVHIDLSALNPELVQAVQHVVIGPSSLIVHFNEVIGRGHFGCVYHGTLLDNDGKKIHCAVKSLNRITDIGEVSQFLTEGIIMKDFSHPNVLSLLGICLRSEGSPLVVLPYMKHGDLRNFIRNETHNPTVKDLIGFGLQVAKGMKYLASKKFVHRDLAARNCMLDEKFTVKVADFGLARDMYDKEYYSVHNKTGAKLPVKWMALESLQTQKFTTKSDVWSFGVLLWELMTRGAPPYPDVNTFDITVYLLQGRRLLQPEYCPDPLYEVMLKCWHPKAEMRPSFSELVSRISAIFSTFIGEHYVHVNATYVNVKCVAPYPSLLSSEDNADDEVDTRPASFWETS

TPR-Met/NIH3T3 cells = assay: In-vivo tests: tumour volume, TPR-Met/NIH3T3 cells injected subcutaneously in Balb/C mice; settings: female Balb/C mice, s.c. TPR-Met/NIH3T3 tumour, 200 mg/kg daily by gastric tube, 9 days
Experimental: They were acclimatised to our keeping conditions for 7 days. Each mouse was subsequently injected subcutaneously in the pelvic area with 4 million TPR-Met/NIH3T3 cells in 100 μl of PBS (without Ca++ and Mg++).

Compound | pIC50 (Met kinase [1]) | pIC50 (Met kinase [2]) | antitumoural action (tumour volume) (TPR-Met/NIH3T3 cells)
CN1CCC(COc2cnc(-c3cccc(Cn4nc(-c5cnn(C)c5)ccc4=O)c3)nc2)CC1 [A237, 2-{3-[5-(1-methylpiperidin-4-ylmethoxy)pyrimidin-2-yl]-benzyl}-6-(1-methyl-1H-pyrazol-4-yl)-2H-pyridazin-3-one] | 6.00 to 9.00 | – | –
Cc1ccc(=O)n(-c2cccc(Cn3nc(-c4cc(F)cc(F)c4)ccc3=O)c2)n1 [A8, 1-{3-[3-(3,5-difluorophenyl)-6-oxo-6H-pyridazin-1-yl-methyl]phenyl}-3-methyl-6H-pyridazin-6-one] | – | 6.00 to 9.00 | –
O=c1ccc(-c2cc(F)cc(F)c2)nn1Cc1cccc(-c2ncc(-c3cnn(C4CCNCC4)c3)cn2)c1 [A63] | 6.00 to 9.00 | – | –
CN1CCN(c2cnc(-c3cccc(Cn4nc(-c5cccc(C#N)c5)ccc4=O)c3)nc2)CC1 [A287, 3-(1-{3-[5-(4-methylpiperazin-1-yl)pyrimidin-2-yl]benzyl}-6-oxo-1,6-dihydropyridazin-3-yl)benzonitrile] | 6.00 to 9.00 | – | –
Cc1cnc(-c2cccc(Cn3nc(-c4ccc5nsnc5c4)ccc3=O)c2)nc1 [A79] | 6.00 to 9.00 | – | –
CN(C)CCCOc1cnc(-c2cccc(Cn3nc(-c4cnn(C)c4)ccc3=O)c2)nc1 [A209, 2-{3-[5-(3-dimethylaminopropoxy)pyrimidin-2-yl]-benzyl}-6-(1-methyl-1H-pyrazol-4-yl)-2H-pyridazin-3-one] | 6.00 to 9.00 | – | –
Cc1cnc(-c2cccc(Cn3nc(-c4cccc(C#N)c4)ccc3=O)c2)nc1 [A15, 3-{1-[3-(5-methylpyrimidin-2-yl)benzyl]-6-oxo-1,6-dihydropyridazin-3-yl}benzonitrile] | 6.00 to 9.00 | – | –
Cc1cnc(-c2cccc(Cn3nc(-c4cc(F)c(F)c(F)c4)ccc3=O)c2)nc1 [A1, 2-[3-(5-methylpyrimidin-2-yl)benzyl]-6-(3,4,5-trifluorophenyl)-2H-pyridazin-3-one] | 6.00 to 9.00 | 6.00 to 9.00 | –
CN(C)CCCCNC(=O)c1cnc(-c2cccc(Cn3nc(-c4cc(F)c(F)c(F)c4)ccc3=O)c2)nc1 [A35] | 6.00 to 9.00 | – | –
O=C1OCCCN1c1cccc(Cn2nc(-c3cc(F)cc(F)c3)ccc2=O)c1 [A6, 3-{3-[3-(3,5-difluorophenyl)-6-oxo-6H-pyridazin-1-ylmethyl]phenyl}-1,3-oxazinan-2-one] | – | 6.00 to 9.00 | –
CN1CCC(Oc2cnc(-c3cccc(Cn4nc(-c5cnn(C)c5)ccc4=O)c3)nc2)CC1 [A226, 2-{3-[5-(1-methylpiperidin-4-yloxy)pyrimidin-2-yl]-benzyl}-6-(1-methyl-1H-pyrazol-4-yl)-2H-pyridazin-3-one] | 6.00 to 9.00 | – | –
Cn1cc(-c2ccc(=O)n(Cc3cccc(-c4ncc(-c5cnn(CCN6CCCC6)c5)cn4)c3)n2)cn1 [A169] | 6.00 to 9.00 | – | –
N#Cc1cccc(-c2ccc(=O)n(Cc3cccc(-c4ncc(-c5cnn(CCN6CCCC6)c5)cn4)c3)n2)c1 [A168, 3-[6-oxo-1-(3-{5-[1-(2-pyrrolidin-1-ylethyl)-1H-pyrazol-4-yl]pyrimidin-2-yl}benzyl)-1,6-dihydropyridazin-3-yl]-benzonitrile] | 6.00 to 9.00 | – | –
N#Cc1cccc(-c2ccc(=O)n(Cc3cccc(-c4ncc(N5CCNCC5)cn4)c3)n2)c1 [A288, 3-{6-oxo-1-[3-(5-piperazin-1-ylpyrimidin-2-yl)benzyl]-1,6-dihydropyridazin-3-yl}benzonitrile] | 6.00 to 9.00 | – | –

Now from value to compound, other results behind:

pIC50 (Met kinase [1]) | pIC50 (Met kinase [2]) | Compound | antitumoural action (tumour volume) (TPR-Met/NIH3T3 cells)
6.00 to 9.00 | – | CN(C)CCOc1cnc(-c2cccc(Cn3nc(-c4cc(F)cc(F)c4)ccc3=O)c2)nc1 [A64, 2-{3-[5-(2-dimethylaminoethoxy)pyrimidin-2-yl]benzyl}-6-(3,5-difluorophenyl)-2H-pyridazin-3-one] | –
5.00 to 6.00 | – | O=c1ccc(-c2cc(F)cc(F)c2)nn1Cc1cccc(-c2nccc(N3CCNCC3)n2)c1 [A13, 6-(3,5-difluorophenyl)-2-[3-(4-piperazin-1-ylpyrimidin-2-yl)benzyl]-2H-pyridazin-3-one] | –
6.00 to 9.00 | – | CN1CCN(Cc2cnc(-c3cccc(Cn4nc(-c5cc(F)cc(F)c5)ccc4=O)c3)nc2)CC1 [A14, 6-(3,5-difluorophenyl)-2-{3-[5-(4-methylpiperazin-1-yl-methyl)pyrimidin-2-yl]benzyl}-2H-pyridazin-3-one] | –
6.00 to 9.00 | – | CN1CCN(CCOc2cnc(-c3cccc(Cn4nc(-c5cc(F)cc(F)c5)ccc4=O)c3)nc2)CC1 [A57] | –
6.00 to 9.00 | – | Nc1cnc(-c2cccc(Cn3nc(-c4cc(F)cc(F)c4)ccc3=O)c2)nc1 [A17, 2-[3-(5-aminopyrimidin-2-yl)benzyl]-6-(3,5-difluorophenyl)-2H-pyridazin-3-one] | –
6.00 to 9.00 | – | O=c1ccc(-c2cc(F)cc(F)c2)nn1Cc1cccc(-c2ncc(N3CCNCC3)cn2)c1 [A19, 6-(3,5-difluorophenyl)-2-[3-(5-piperazin-1-ylpyrimidin-2-yl)benzyl]-2H-pyridazin-3-one] | –
6.00 to 9.00 | – | O=c1ccc(-c2cc(F)cc(F)c2)nn1Cc1cccc(-c2ncc(Br)cn2)c1 [A25, 2-[3-(5-bromopyrimidin-2-yl)benzyl]-6-(3,5-difluorophenyl)-2H-pyridazin-3-one] | –
6.00 to 9.00 | – | Cn1cc(-c2cnc(-c3cccc(Cn4nc(-c5cc(F)cc(F)c5)ccc4=O)c3)nc2)cn1 [A26, 6-(3,5-difluorophenyl)-2-{3-[5-(1-methyl-1H-pyrazol-4-yl)pyrimidin-2-yl]benzyl}-2H-pyridazin-3-one] | –
6.00 to 9.00 | – | CN1CCC(COc2cnc(-c3cccc(Cn4nc(-c5cc(F)cc(F)c5)ccc4=O)c3)nc2)CC1 [A66] | –
6.00 to 9.00 | – | CN(C)C=Nc1cnc(-c2cccc(Cn3nc(-c4cc(F)cc(F)c4)ccc3=O)c2)nc1 [A16, N′-(2-{3-[3-(3,5-difluorophenyl)-6-oxo-6H-pyridazin-1-ylmethyl]phenyl}-pyrimidin-5-yl)-N,N-dimethylformamidine] | –
6.00 to 9.00 | – | CN1CCC(Oc2cnc(-c3cccc(Cn4nc(-c5cc(F)cc(F)c5)ccc4=O)c3)nc2)CC1 [A23, 6-(3,5-difluorophenyl)-2-{3-[5-(1-methylpiperidin-4-yloxy)pyrimidin-2-yl]benzyl}-2H-pyridazin-3-one] | –
6.00 to 9.00 | – | CN1CCN(c2cnc(-c3cccc(Cn4nc(-c5cc(F)c(F)c(F)c5)ccc4=O)c3)nc2)CC1 [A20, 2-{3-[5-(4-methylpiperazin-1-yl)pyrimidin-2-yl]benzyl}-6-(3,4,5-trifluorophenyl)-2H-pyridazin-3-one] | –
6.00 to 9.00 | – | O=c1ccc(-c2cc(F)cc(F)c2)nn1Cc1cccc(-c2ncc(OC3CCNCC3)cn2)c1 [A102, 6-(3,5-difluorophenyl)-2-{3-[5-(piperidin-4-yloxy)pyrimidin-2-yl]benzyl}-2H-pyridazin-3-one] | –
6.00 to 9.00 | – | CN1CCN(c2cnc(-c3cccc(Cn4nc(-c5cc(F)cc(F)c5)ccc4=O)c3)nc2)CC1 [A18, 6-(3,5-difluorophenyl)-2-{3-[5-(4-methylpiperazin-1-yl)pyrimidin-2-yl]-benzyl}-2H-pyridazin-3-one] | significant antitumoural action
